Measured values as given in patent US20060223792A1, “Phenyl and pyridyl LTA4H modulators” (priority 2005, published 2006).
pIC50: −log10 of the molar value. Structures can show the parent of a compound that is named as a salt. Where two headings read alike, the source gives them in different places.

Key:
[1] = target: T1, recombinant human LTA4 hydrolase (rhLTA4H) (Homo sapiens, UniProt P09960); experiment: Recombinant human LTA4 hydrolase assay for LTA4 hydrolase inhibitor activity; format: biochemical; details: recombinant human LTA4H, LTB4 quantified by enzyme-linked immunoassay; average of one to three determinations; read-out: IC50
T1 construct: made in house; host or cells: Spodoptera frugiperda (Sf-9) cells, baculovirus (pFastBac1)
T1 sequence (P09960 1-611): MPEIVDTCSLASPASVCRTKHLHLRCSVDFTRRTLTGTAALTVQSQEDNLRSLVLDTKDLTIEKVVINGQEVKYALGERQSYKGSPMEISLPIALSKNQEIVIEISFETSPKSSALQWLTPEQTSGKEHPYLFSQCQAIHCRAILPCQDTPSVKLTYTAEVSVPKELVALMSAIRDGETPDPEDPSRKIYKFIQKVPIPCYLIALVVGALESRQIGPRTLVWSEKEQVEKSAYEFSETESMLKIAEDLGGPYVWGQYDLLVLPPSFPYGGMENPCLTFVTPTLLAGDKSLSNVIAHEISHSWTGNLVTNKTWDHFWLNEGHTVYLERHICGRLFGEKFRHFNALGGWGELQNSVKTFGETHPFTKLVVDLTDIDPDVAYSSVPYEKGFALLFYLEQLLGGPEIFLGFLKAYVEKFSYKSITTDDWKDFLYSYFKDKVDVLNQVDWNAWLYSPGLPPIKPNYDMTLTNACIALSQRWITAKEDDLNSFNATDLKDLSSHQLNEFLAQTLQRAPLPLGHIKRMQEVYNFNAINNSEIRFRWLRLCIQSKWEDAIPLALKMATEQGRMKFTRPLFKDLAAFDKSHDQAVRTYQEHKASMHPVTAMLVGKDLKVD
Method in brief: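 Sf-9-expressed rhLTA4H (36 ng) preincubated 10 min at rt with compound in 0.1 M potassium phosphate pH 7.4, 5 mg/mL fatty-acid-free BSA; 9 ng LTA4 free acid added, 10 min at rt in 225 μL. LTB4 measured by enzyme immunoassay; IC50 from 4-parameter fit, mean of one to three determinations.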

[2] = system: neutrophil influx (myeloperoxidase, MPO); experiment: Murine arachidonic acid-induced inflammation model: neutrophil influx in ear (myeloperoxidase activity); format: in vivo, female Balb/c mice; details: Mus musculus, read-out: % Inh. MPO
Description: (§1) Murine Arachidonic Acid-Induced Inflammation Model
(§2) LTA4H inhibitor compounds of the present invention were dissolved in 20% cyclodextran/H2O at a concentration of 3 mg/mL. The solutions were administered by oral gavage to female Balb/c mice weighing approximately 20 grams each (0.2 mL per mouse, 30 mg of LTA4H inhibitor compound per kg). Sixty minutes after being administered an LTA4 inhibitor, each mouse received topical application of 20 μL of arachidonic acid (100 mg/mL in acetone) to the left ear and 20 μL of acetone only to the right ear. After 3 h, the mice were sacrificed, blood was withdrawn in heparinized syringes, and 8 mm ear biopsies were taken. Ear biopsies were weighed to determine edema and then frozen at −80° C. until needed for determination of neutrophil influx.
Neutrophil influx was quantified by measuring the activity of myeloperoxidase (MPO), a neutrophil-specific enzyme. The ear biopsies were homogenized in 0.5 mL extraction buffer (0.3 M sucrose, 0.22% (w/v) hexadecyl trimethyl ammonium bromide (CTAB), and 2.5 mM citrate prepared from 0.5 M citrate stock solution (pH 5.0)). Debris was removed by centrifugation at 14000×g for 10 min. Aliquots of 10 μL of the resulting supernatant were added to wells of a microtiter plate, along with 90-μL aliquots of dilution buffer (10 mM citrate, 0.22% CTAB), followed by addition of 20 μL TMB liquid substrate system (Sigma Chemical Co.) to each sample well. The microtiter plate contents were held at rt for 1 h. The reaction was stopped by addition of 100 μL 1 M H2SO4 to each sample well, and the myeloperoxidase activity in each sample was determined from the absorbance at 405 nm. The background value from the right ear, treated only with acetone, was subtracted from that for the left ear, treated with arachidonic acid in acetone, for each animal. The percent inhibition of neutrophil influx (% lnh. MPO) by compounds of the invention was determined by comparison to animals treated identically, except that the solution administered by oral gavage was devoid of inhibitor compound.

[3] = system: ex vivo stimulated LTB4 production; experiment: Murine arachidonic acid-induced inflammation model: ex vivo stimulated LTB4 production in blood; details: Mus musculus; 30 mg/kg oral gavage, female Balb/c mice; blood taken 3 h after arachidonic acid, stimulated ex vivo with A23187; read-out: % Inh. LTB4
Description: as §1, §2
One hundred-microliter aliquots of heparinized blood were added to wells of a microtiter plate, along with equal volumes of RPMI-1640 medium, and calcium ionophore A23187 was added to each sample well (final concentration=[…]). The microtiter plate contents were incubated for 10 min at 37° C. in a humidified incubator. The reaction was terminated by centrifugation (833×g, 10 min at 4° C.). Supernatants were analyzed for LTB4 by a commercially available enzyme-linked immunoassay (Cayman Chemical Co.) in accordance with the manufacturer's instructions. The percent inhibition of ex vivo stimulated LTB4 production (% Inh. LTB4) was determined by comparison to animals treated identically except that the solution admininstered by oral gavage was devoid of inhibitor compound.

[4] = system: LTB4 production by calcium ionophore-stimulated murine blood; experiment: LTB4 production by calcium ionophore-stimulated murine blood for LTA4H inhibitor activity; format: cell-based, CD-1 mice; details: diluted CD-1 mouse whole blood, calcium ionophore A23187, LTB4 by enzyme-linked immunoassay
Description: LTB4 Production by Calcium Ionophore-Stimulated Murine Blood for LTA4H Inhibitor Activity
CD-1 mice were sacrificed, and blood was collected in heparin-containing syringes by cardiac puncture. The blood was diluted 1:15 with RPMI-1640 medium, and 200-μL aliquots of the diluted blood were added to wells of a 96-well microtiter plate. LTA4H inhibitor test compounds were prepared at different concentrations in RPMI-1640 medium containing […], and 20 μL of each test solution was added to a well containing diluted whole blood (final DMSO concentration of 0.1%). After the microtiter plate contents were incubated for 15 min at 37° C. in a humidified incubator, calcium ionophore A23187 (Sigma Chemical Co., St. Louis, Mo.) was added to each sample well (final concentration=20 ng/mL). The incubation was continued under the same conditions for an additional 10 min to allow LTB4 formation. The reaction was terminated by centrifugation (833×g, 10 min at 4° C.), and supernatants were analyzed for LTB4 by a commercially available enzyme-linked immunoassay (Cayman Chemical Co.) according to the manufacturer's instructions. Positive controls, under essentially identical conditions but without addition of an inhibitor compound, and negative unstimulated controls, containing all assay components except calcium ionophore, were routinely run in each experiment. IC50 values were determined by fitting the activity data at different compound concentrations to a 4-parameter equation using the Grafit program (Erithacus software).

[5] = system: ionophore-induced LTB4 production; details: oral administration; cited from earlier work
[6] = system: ionophore-induced LTB4 production; details: oral administration; cited from earlier work; remark: listed apart in the source
[7] = system: colitis symptoms; details: eight weeks of treatment, cotton top tamarins; cited from earlier work
[8] = 30 mg/kg oral gavage 60 min before topical arachidonic acid to ear, female Balb/c mice, ear biopsies after 3 h

pIC50 [1]	pIC50 [4]	Structure (SMILES)	inhibition at 30 mg/kg [3]	other results
7.64	6.76	c1ccc(CCOc2ccc(OCCN3CCCCC3)cc2)cc1 [Example 67, 1-[2-(4-Phenethyloxy-phenoxy)-ethyl]-piperidine]		
7.70	6.67	c1ccc2c(c1)CC(Oc1ccc(OCCN3CCCCC3)cc1)C2 [Example 69, 1-{2-[4-(Indan-2-yloxy)-phenoxy]-ethyl}-piperidine]		
8.15		O=C(O)CCN(CCc1ccc(OCCc2ccccc2)cc1)C1CCCCC1 [Example 89, 3-{Cyclohexyl-[2-(4-phenethyloxy-phenyl)-ethyl]-amino}-propionic acid]	36%	inhibition in vivo at 30 mg/kg [2, 8]: 41%
7.74	7.80	CS(=O)(=O)NC1CCN(Cc2ccc(OCCc3ccccc3)cc2)CC1 [Example 93, N-[1-(4-Phenethyloxy-benzyl)-piperidin-4-yl]methanesulfonamide]		
7.21	6.55	c1ccc(CCOc2ccc(CN3CCC(c4nnn[nH]4)CC3)cc2)cc1 [Example 104, 1-(4-Phenethyloxy-benzyl)-4-(1H-tetrazol-5-yl)-piperidine]		
8.30	7.48	O=C1CCCN1C1CCN(Cc2ccc(OCCCc3ccccc3)cc2)CC1 [Example 107, 1-{1-[4-(3-Phenyl-propoxy)-benzyl]-piperidin-4-yl}-pyrrolidin-2-one]		
7.89	7.25	CC(=O)NC1CCN(Cc2ccc(OCCc3ccccc3)cc2)CC1 [Example 113, N-[1-(4-Phenethyloxy-benzyl)-piperidin-4-yl]-acetamide]		

Further lines, the compound ahead of its results:

Structure (SMILES)	pIC50 [1]	pIC50 [4]	inhibition at 30 mg/kg [3]	other results
O=C(Nc1ccccc1)Oc1ccc(OCCN2CCCCC2)cc1 [Example 15, Phenyl-carbamic acid 4-(2-piperidin-1-yl-ethoxy)-phenyl ester]	7.89		78%	inhibition in vivo at 30 mg/kg ([2]; po, 3 h): 92%
c1ccc(CCOc2ccc(CCN3CCC(c4nnn[nH]4)CC3)cc2)cc1 [Example 30, 1-[2-(4-Phenethyloxy-phenyl)-ethyl]-4-(1H-tetrazol-5-yl)-piperidine]	7.57	6.77		
O=C(O)CCN(CCc1ccc(OCCc2ccccc2)cc1)C1CC1 [Example 35, 3-{Cyclopropyl-[2-(4-phenethyloxy-phenyl)-ethyl]-amino}-propionic acid trifluoroacetic acid salt]	9.30		84%	inhibition in vivo at 30 mg/kg [2, 8]: 92%
O=C(Nc1ccccc1)Oc1ccc(OCCN2CCC(O)(c3ccccc3)CC2)cc1 [Example 47, Phenyl-carbamic acid 4-[2-(4-hydroxy-4-phenyl-piperidin-1-yl)-ethoxy]-phenyl ester]	9.00		80%	inhibition in vivo at 30 mg/kg ([2]; po, 3 h): 95%
CCCCN(CCCC)CCOc1ccc(OC(=O)Nc2ccccc2)cc1 [Example 48, Phenyl-carbamic acid 4-(2-dibutylamino-ethoxy)-phenyl ester]	8.05		69%	inhibition in vivo at 30 mg/kg ([2]; po, 3 h): 66%
O=C(Nc1ccccc1)Oc1ccc(OCCN2CCC(CO)CC2)cc1 [Example 51, Phenyl-carbamic acid 4-[2-(4-hydroxymethyl-piperidin-1-yl)-ethoxy]-phenyl ester]	8.40	7.92		
O=C(Nc1ccccc1)Oc1ccc(CCN2CCCCC2)cc1 [Example 52, Phenyl-carbamic acid 4-(2-piperidin-1-yl-ethyl)-phenyl ester]	8.52		80%	inhibition in vivo at 30 mg/kg ([2]; po, 3 h): 87%
O=C(Nc1ccsc1)Oc1ccc(OCCN2CCCCC2)cc1 [Example 64, Thiophen-3-yl-carbamic acid 4-(2-piperidin-1-yl-ethoxy)-phenyl ester]	8.52	7.32		
NC(=O)C1CCN(CCc2ccc(OCCc3ccccc3)cc2)CC1 [Example 79, 1-[2-(4-Phenethyloxy-phenyl)-ethyl]-piperidine-4-carboxylic acid amide]	7.30	6.72		
CS(=O)(=O)NC1CCN(Cc2ccc(OCCCc3ccccc3)cc2)CC1 [Example 119, N-{1-[4-(3-Phenyl-propoxy)-benzyl]-piperidin-4-yl}-methanesulfonamide]	7.72	7.03		
CC(=O)NC1CCN(Cc2ccc(OCCCc3ccccc3)cc2)CC1 [Example 120, N-{1-[4-(3-Phenyl-propoxy)-benzyl]-piperidin-4-yl}-acetamide]	7.60	6.90		
CN(CCCOc1ccc(Cc2ccccc2)cc1)CCC(=O)O.Cl [SC57461]				inhibition of ionophore-induced LTB4 production in rat peritoneum in vivo [5]: caused inhibition; inhibition of ionophore-induced LTB4 production in mouse blood ex vivo [6]: caused inhibition; colitis symptoms [7]: significantly improved colitis symptoms
